Assay [1] has as its target proteins in FBS. In words: Fluorescence polarization analysis of CPP binding to FBS. The following applies: 100 nM labeled peptide, FBS in DPBS, 1 h, FP; read-out: apparent KD to proteins in FBS. Further details: species or system bovine. On the procedure:
General Methods—Fluorescence Polarization (FP) Analysis of CPP Binding to FBS. Fluorescein-labeled peptide (100 nM) was incubated with serial dilutions of FBS (0-100 μM) in DPBS for 1 h. The solutions were transferred to a 384-black microplate (Greiner), and FP values were measured on a Tecan Infinite M1000 Pro plate reader, with excitation and emission wavelengths at 470 and 535 nm, respectively, for FITC, 530 and 580 nm for TMR, and 595 and 660 nm for NF. The titration curves were fitted using GraphPad Prism to the following equation: […]
where FP is the measured polarization, Amin is the minimum FP value, Amax is the maximum FP value, Qb is the quantum yield of the bound fluorophore, Qf is the quantum yield of the free fluorophore, L is the ligand concentration, KD is the dissociation constant, and x is the protein concentration. Data presented are the mean±SD of three independent experiments.
(In fluorescence polarisation assays a small probe gives low polarisation when free and higher when bound to something large.)

Assay [2] concerns HeLa cells. In words: Live-cell confocal microscopy. The following applies: 2 h, 1% FBS. It is filed as cell-based, human. On the procedure:
General Methods—Confocal Microscopy. HeLa cells were seeded in a 35-mm glass-bottomed microwell dish with 4 compartments (Greiner) at a density of 5×10^4 cells/mL (300 μL in each compartment) and cultured overnight. Next day, the cells were gently washed with DPBS twice, and treated for 2 h with FITC- or TMR-labelled peptides (5 μM, 1 μM or 0.2 μM as indicated) in phenol-red free DMEM containing 1% […]. After removal of the medium, the cells were gently washed with DPBS twice and imaged on a Nikon A1R live-cell confocal laser scanning (ECLIPSE Ti-E automated, inverted) microscope equipped with a 100× oil objective (1.45 N.A.) and a heated (37° C.) chamber supplied with 5% CO2. For the red channel (TMR), the laser line with λEx 561 nm was set at 0.6% laser power (for 5 μM peptide treatment), 1.6% laser power (for 1 μM peptide treatment) or 10.8% laser power (for 0.2 μM peptide treatment). For the green channel (FITC), the laser line with λEx 487 nm was set at 0.6% laser power. The data were analyzed using NIS-Elements AR.

The test system of assay [3] is Keap1-Nrf2 interaction. In words: Luciferase reporter assay in ARE reporter-HepG2 cells. It is filed as cell-based. Conditions: up to 5 mM concentration. On the procedure:
General Methods—Luciferase Reporter Assay. ARE reporter-HepG2 cells (1000 cells per well) were seeded in 100 μL of assay medium (MEM, 0% FBS, and 1% penicillin-streptomycin sulfate) in an opaque 96-well plate and cultured overnight. […] After incubation, 100 μL of One-Step luciferase assay reagent was added to each well and after 15 min of shaking, the luminescence was measured using a Tecan Infinite M1000 Pro microplate reader. P values (<0.05) were estimated using Student's t test.
Background: A reporter such as luciferase makes a cellular process visible.

Each structure is given as a SMILES string. Where a SMILES comes first, the peptide text is derived from it. Side-chain parts run from the residue outwards. [ ]: non-standard residue; d: D form. The star is where a group is joined. X2 = NC(=O)[C@H](CCCCNC(=O)c1ccc(-c2c3ccc4cc(O)ccc4c3oc3c2ccc2cc(=O)ccc23)c(C(=O)O)c1)N*; Lys(5-FITC)NH2 = NC(=O)[C@H](CCCCNC(=S)Nc1ccc2c(c1)C(=O)OC21c2ccc(O)cc2Oc2cc(O)ccc21)N*; X1 = CN(C)c1ccc2c(c1)Oc1cc(N(C)C)ccc1C21OC(=O)c2cc(C(=O)NCCCC[C@H](N*)C(N)=O)ccc21; 2Nal = N[C@@H](Cc1ccc2ccccc2c1)C(=O)O; Bta = N[C@@H](Cc1csc2ccccc12)C(=O)O; AEEA = NCCOCCOCC(=O)O

Take `N=C(N)NCCC[C@@H]1NC(=O)[C@H](Cc2ccc3ccccc3c2)NC(=O)[C@@H](Cc2ccccc2)NC(=O)[C@H](Cc2ccccc2)NC(=O)[C@H](CCC(=O)NCCOCCOCC(=O)N[C@@H](CCCCNC(=O)c2ccc(-c3c4ccc5cc(O)ccc5c4oc4c3ccc3cc(=O)ccc34)c(C(=O)O)c2)C(N)=O)NC(=O)[C@@H](CCCNC(=N)N)NC(=O)[C@H](CCCNC(=N)N)NC(=O)[C@@H](CCCNC(=N)N)NC1=O` [CPP12, cycl(Phe-D-Phe-Nal-Arg-D-Arg-Arg-D-Arg-Gln)] (cyclo([2Nal]R[dR]R[dR]E([AEEA-X2])F[dF])): the Kd in assay [1] came to 1.3 ± 0.3 µM.

On to `N=C(N)NCCC[C@@H]1NC(=O)[C@H](Cc2csc3ccccc23)NC(=O)[C@@H](Cc2ccccc2)NC(=O)[C@H](Cc2ccccc2)NC(=O)[C@H](CCC(=O)NCCOCCOCC(=O)N[C@@H](CCCCNC(=O)c2ccc(-c3c4ccc5cc(O)ccc5c4oc4c3ccc3cc(=O)ccc34)c(C(=O)O)c2)C(N)=O)NC(=O)[C@@H](CCCNC(=N)N)NC(=O)[C@H](CCCNC(=N)N)NC(=O)[C@@H](CCCNC(=N)N)NC1=O` [CPP12-2, Phe-phe-(Bta)-Arg-arg-Arg-arg-Gln] (cyclo([Bta]R[dR]R[dR]E([AEEA-X2])F[dF])), for which the Kd in assay [1] came out at 1.2 ± 0.4 µM.

On to `N=C(N)NCCC[C@@H]1NC(=O)[C@H](Cc2csc3ccccc23)NC(=O)[C@@H](Cc2ccccc2)NC(=O)[C@H](Cc2ccccc2)NC(=O)[C@H](CCC(=O)NCCOCCOCC(=O)N[C@@H](CCCCNC(=S)Nc2ccc3c(c2)C(=O)OC32c3ccc(O)cc3Oc3cc(O)ccc32)C(N)=O)NC(=O)[C@@H](CCCNC(=N)N)NC(=O)[C@H](CCCNC(=N)N)NC(=O)[C@@H](CCCNC(=N)N)NC1=O` [CPP12-2^FITC] (cyclo(F[dF][Bta]R[dR]R[dR]E([AEEA-Lys(5-FITC)NH2]))), for which the Kd in assay [1] amounted to 30 ± 5 µM.

`CN(C)c1ccc2c(c1)Oc1cc(N(C)C)ccc1C21OC(=O)c2cc(C(=O)NCCCC[C@H](NC(=O)COCCOCCNC(=O)CC[C@@H]3NC(=O)[C@@H](CCCNC(=N)N)NC(=O)[C@H](CCCNC(=N)N)NC(=O)[C@@H](CCCNC(=N)N)NC(=O)[C@H](CCCNC(=N)N)NC(=O)[C@H](Cc4csc5ccccc45)NC(=O)[C@@H](Cc4ccccc4)NC(=O)[C@H](Cc4ccccc4)NC3=O)C(N)=O)ccc21` [CPP12-2^TMR] (cyclo([Bta]R[dR]R[dR]E([AEEA-X1])F[dF])): the “intracellular distribution of TMR fluorescence” value in assay [2] (0.2 and 1.0 μM) is “predominantly punctate fluorescence in the cytoplasmic region”. Further, the Kd in assay [1] came out at 68 ± 9 µM.

For `N=C(N)NCCC[C@@H]1NC(=O)[C@H](Cc2ccc3ccccc3c2)NC(=O)[C@@H](Cc2ccccc2)NC(=O)[C@H](Cc2ccccc2)NC(=O)[C@H](CCC(=O)NCCOCCOCC(=O)N[C@@H](CCCCNC(=S)Nc2ccc3c(c2)C(=O)OC32c3ccc(O)cc3Oc3cc(O)ccc32)C(N)=O)NC(=O)[C@@H](CCCNC(=N)N)NC(=O)[C@H](CCCNC(=N)N)NC(=O)[C@@H](CCCNC(=N)N)NC1=O` [CPP12^FITC] (cyclo(F[dF][2Nal]R[dR]R[dR]E([AEEA-Lys(5-FITC)NH2]))), the Kd in assay [1] turned out to be 29 ± 3 µM.

On to `CN(C)c1ccc2c(c1)Oc1cc(N(C)C)ccc1C21OC(=O)c2cc(C(=O)NCCCC[C@H](NC(=O)COCCOCCNC(=O)CC[C@@H]3NC(=O)[C@@H](CCCNC(=N)N)NC(=O)[C@H](CCCNC(=N)N)NC(=O)[C@@H](CCCNC(=N)N)NC(=O)[C@H](CCCNC(=N)N)NC(=O)[C@H](Cc4ccc5ccccc5c4)NC(=O)[C@@H](Cc4ccccc4)NC(=O)[C@H](Cc4ccccc4)NC3=O)C(N)=O)ccc21` [CPP12^TMR] (cyclo([2Nal]R[dR]R[dR]E([AEEA-X1])F[dF])), for which the “intracellular distribution of TMR fluorescence” value is reported as “very similar intracellular distribution” in assay [2] (5 μM); “predominantly punctate fluorescence in the cytoplasmic region” in assay [2] (0.2 and 1.0 μM). Moreover, the Kd in assay [1] turned out to be 27 ± 9 µM.

As for `CC(C)C[C@@H]1NC(=O)[C@H](Cc2ccccc2)NC(=O)[C@H](CCC(=O)O)NC(=O)CNC(=O)[C@H]([C@@H](C)O)NC(=O)[C@H](CCC(=O)O)NC(=O)[C@@H]2CCCN2C(=O)[C@H](CC(=O)O)NC(=O)[C@H](CC(C)C)NC(=O)[C@H](CCC(N)=O)NC(=O)CNC1=O` [Peptide P1], in assay [3], the “increase in luciferase activity” value is listed as “did not result in significant increase in luciferase activity”.

The values are drawn from US20240158445A1, “CYCLIC CELL-PENETRATING PEPTIDES WITH THREE OR MORE HYDROPHOBIC RESIDUES” (Ohio State Innovation Foundation, priority 2021, published 2024).
